The values below come from patent US20250129103A1, “METHODS FOR TREATMENT OF CANCER” (Frontier Medicines Corporation, priority 2022, published 2025).

The structures appear in SMILES notation. ≈ marks a conversion by molar mass, not a printed value.

The target in data set [1] is KRAS G12C (GMPPNP-loaded) and cRAF (Ras-binding domain) interaction (Homo sapiens (Human), UniProt P01116, C118S/C51S/C80L/G12C). The data set can be described thus: Inhibition of KRAS G12C and cRAF binding (AlphaScreen). Particulars: KRAS G12C loaded with GMPPNP, cRaf RBD, 2 hours preincubation; read-out: Raf-1 RBD K-Ras IC50. Put shortly: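 AlphaScreen readout (680 nm excitation, 570 nm emission) of RBD binding after a 60-90 min bead step at room temperature. This step follows 2 h compound exposure of GMPPNP-preloaded KRAS G12C in Hepes pH 7.4 buffer with MgCl2 and 10 μM GMPPNP.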

A short description of data set [2]: Determination of kinetic solubility (pH 7.4). Particulars: phosphate buffer, pH 7.4, aqueous buffer, kinetic from dmso stock, 50 mM phosphate buffer pH 7.4, read-out: Ksol, pH 7.4. The class given is physicochemical. The procedure, abridged: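 Solubility taken from filtrate peak areas on a calibration curve (HPLC-UV, LC-MS/MS). Before filtration and centrifugation, compound was shaken for 2 h at room temperature in pH 7.4 50 mM phosphate buffer.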

Data set [3] has as its target KRAS G12C (GMPPNP-loaded) and PI3Ka (Ras-binding domain) interaction (Homo sapiens (Human), UniProt P01116, C118S/C51S/C80L/G12C). The data set can be described thus: Inhibition of KRAS G12C and PI3Ka binding (AlphaScreen). Particulars: KRAS G12C loaded with GMPPNP, PI3Ka RBD, 2 hours preincubation; read-out: PI3K RBD K-Ras IC50. The procedure, abridged:
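Biotin-AviTag Cys-light KRAS G12C (aa 1-169, C51S/C80L/C118S), GMPPNP-loaded, 1.5 nM, preincubated 2 h with compound, then His-tagged PI3Ka RBD (aa 157-300, 100 nM) plus AlphaScreen beads added for 60-90 min, RT. Buffer Hepes pH 7.4, 10 μM GMPPNP, 2% DMSO; 10-point 1:3 from 50 μM; 4-parameter IC50.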

Data set [4] in a line: Determination of logD (1-octanol / phosphate buffer pH 7.4). It is filed as physicochemical. Particulars: 1-octanol/phosphate buffer, pH 7.4, pH 7.4, 1-octanol/phosphate buffer; read-out: Log D, pH 7.4. The procedure, abridged:
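Each phase analysed by LCMS after 1 h shaking at 800 rpm and centrifugation, room temperature. Phases were mutually saturated 1-octanol and 100 mM phosphate buffer at pH 7.4. LogD derived from the phase concentrations.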

KRAS G12C (GMPPNP-loaded) and PI3Ka (Ras-binding domain) interaction, sequence (P01116 other isoform, or with tags, fused parts or gaps G12C/C51S/C80L/C118S): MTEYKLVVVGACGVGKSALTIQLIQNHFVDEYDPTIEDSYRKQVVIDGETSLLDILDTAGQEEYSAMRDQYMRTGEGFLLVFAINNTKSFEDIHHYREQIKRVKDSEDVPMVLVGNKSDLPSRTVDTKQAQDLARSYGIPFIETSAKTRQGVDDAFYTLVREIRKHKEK
KRAS G12C (GMPPNP-loaded) and cRAF (Ras-binding domain) interaction, sequence (P01116 other isoform, or with tags, fused parts or gaps G12C/C51S/C80L/C118S): as above

For the molecule `N#CC[C@H]1CN(c2nc(OC[C@@]34CCCN3C[C@H](F)C4)nc3c(F)c(-c4cccc5ccc(F)c(Cl)c45)ncc23)CCN1C(=O)/C=C/CN1C[C@H]2C[C@@H]1CO2` [Example 72, 2-((S)-1-((E)-4-((1R,4R)-2-oxa-5-azabicyclo[2.2.1]heptan-5-yl)but-2-enoyl)-4-(7-(8-chloro-7-fluoronaphthalen-1-yl)-8-fluoro-2-(((2R,7aS)-2-fluorotetrahydro-1H-pyrrolizin-7a(5H)-yl)methoxy)pyrido[4,3-d]pyrimidin-4-yl)piperazin-2-yl)acetonitrile], the IC50 in data set [1] and in data set [3] was below 10 nM in each case. Further, the solubility kinetic at 2 h in data set [2] is 143 µg/mL (≈ 185 µM). In addition, the logD in data set [4] turned out to be 3.12.

For the molecule `N#CC[C@H]1CN(c2nc(OC[C@@]34CCCN3C[C@H](F)C4)nc3c(F)c(-c4cccc5ccc(F)c(Cl)c45)ncc23)CCN1C(=O)/C=C/CN1CCC(F)(F)CC1` [Example 82, 2-((S)-4-(7-(8-chloro-7-fluoronaphthalen-1-yl)-8-fluoro-2-(((2R,7aS)-2-fluorotetrahydro-1H-pyrrolizin-7a(5H)-yl)methoxy)pyrido[4,3-d]pyrimidin-4-yl)-1-((E)-4-(4,4-difluoropiperidin-1-yl)but-2-enoyl)piperazin-2-yl)acetonitrile], the IC50 in data set [1] and in data set [3] was below 10 nM in each case. The solubility kinetic at 2 h in data set [2] is 3.46 µg/mL (≈ 4.35 µM). Besides, the logD in data set [4] amounted to 4.2.

In the case of `N#CC[C@H]1CN(c2nc(OC[C@@]34CCCN3C[C@H](F)C4)nc3c(F)c(-c4cccc(Cl)c4C4CC4)ncc23)CCN1C(=O)/C=C/CN1C[C@@H]2C[C@H]1CO2` [Compound 277], the IC50 in data set [1] and in data set [3] was below 10 nM throughout. In addition, in data set [2], the solubility kinetic at 2 h is 91 µg/mL (≈ 122 µM). The logD in data set [4] was determined as 2.85.

In the case of `N#CC[C@H]1CN(c2nc(OC[C@@]34CCCN3C[C@H](F)C4)nc3c(F)c(-c4cccc5ccc(F)c(F)c45)ncc23)CCN1C(=O)/C=C/CN1CC2CC(C1)O2` [Compound 229], the IC50 in data set [1] and in data set [3] was below 10 nM throughout. For the same molecule, in data set [2], the solubility kinetic at 2 h is 69.9 µg/mL (≈ 92.3 µM). For the same molecule, in data set [4], the logD stood at 1.63.

Regarding `C[C@H]1CN(C/C=C/C(=O)N2CCN(c3nc(OC[C@@]45CCCN4C[C@H](F)C5)nc4c(F)c(-c5cccc6cccc(Cl)c56)ncc34)C[C@@H]2CC#N)C[C@H](C)O1` [Compound 188], the IC50 in data set [1] and in data set [3] was below 10 nM throughout. For the same molecule, in data set [2], the solubility kinetic at 2 h was determined as 79.1 µg/mL (≈ 103 µM). Further, in data set [4], the logD amounted to 3.86.

Take `Cc1nccc(/C=C/C(=O)N2CCN(c3nc(OCC45CCCN4CCC5)nc4c(F)c(-c5cccc6cccc(Cl)c56)ncc34)C[C@@H]2CC#N)n1` [Compound 139]: the IC50 in data set [1] is 10 to 100 nM; in data set [3] it was below 10 nM. In addition, the solubility kinetic at 2 h in data set [2] turned out to be 107 µg/mL (≈ 150 µM). Besides, the logD in data set [4] is 1.93.

Turning to `N#CC[C@H]1CN(c2nc(OC[C@@]34CCCN3C[C@H](F)C4)nc3c(F)c(-c4cccc5cccc(Cl)c45)ncc23)CCN1C(=O)/C=C/CN1CC[C@H](F)C1` [Compound 95, 2-((S)-4-(7-(8-chloronaphthalen-1-yl)-8-fluoro-2-(((2R,7aS)-2-fluorohexahydro-1H-pyrrolizin-7a-yl)methoxy)pyrido[4,3-d]pyrimidin-4-yl)-1-((E)-4-((S)-3-fluoropyrrolidin-1-yl)but-2-enoyl)piperazin-2-yl)acetonitrile], the IC50 in data set [1] and in data set [3] was below 10 nM throughout. Further, in data set [2], the solubility kinetic at 2 h is 73.6 µg/mL (≈ 98.7 µM). Further, the logD in data set [4] was 1.63.

Turning to `N#CC[C@H]1CN(c2nc(OC[C@@]34CCCN3C[C@H](F)C4)nc3c(F)c(-c4cccc5cccc(Cl)c45)ncc23)CCN1C(=O)/C=C/c1ccnc(C2CC2)n1` [Compound 154], the IC50 in data set [1] and in data set [3] was below 10 nM throughout. The solubility kinetic at 2 h in data set [2] amounted to 0.01 µg/mL (≈ 0.0131 µM). Further, in data set [4], the logD came out at 4.36.
